Test results as given in ChEMBL document CHEMBL1137169, “P4 cap modified tetrapeptidyl alpha-ketoamides as potent HCV NS3 protease inhibitors” (Bioorg Med Chem Lett, 2004).

What was measured:
NS3 = NS3 (Hepatitis C virus, UniProt A3EZJ3); test: Inhibitory potency against HCV NS3 protease; parameters: species or system Hepacivirus hominis
Huh-7 = test: Cytotoxic concentration against Huh-7 liver cell line; format: functional; details: Homo sapiens
Cell line = test: inhibitory concentration in luciferase based replicon assay; format: functional; details: Homo sapiens
[1] = biological target: T1, Neutrophil elastase (Homo sapiens) (UniProt P08246); test: Selectivity for human neutrophil elastase
T1 sequence (whole entry): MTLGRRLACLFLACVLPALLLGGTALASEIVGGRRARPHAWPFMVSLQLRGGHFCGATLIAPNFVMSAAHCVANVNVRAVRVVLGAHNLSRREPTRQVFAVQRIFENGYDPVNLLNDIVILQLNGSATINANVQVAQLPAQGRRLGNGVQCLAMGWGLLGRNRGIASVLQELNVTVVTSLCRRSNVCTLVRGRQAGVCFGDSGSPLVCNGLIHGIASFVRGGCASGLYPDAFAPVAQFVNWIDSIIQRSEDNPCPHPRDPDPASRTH

NS3, sequence (A3EZJ3 whole entry): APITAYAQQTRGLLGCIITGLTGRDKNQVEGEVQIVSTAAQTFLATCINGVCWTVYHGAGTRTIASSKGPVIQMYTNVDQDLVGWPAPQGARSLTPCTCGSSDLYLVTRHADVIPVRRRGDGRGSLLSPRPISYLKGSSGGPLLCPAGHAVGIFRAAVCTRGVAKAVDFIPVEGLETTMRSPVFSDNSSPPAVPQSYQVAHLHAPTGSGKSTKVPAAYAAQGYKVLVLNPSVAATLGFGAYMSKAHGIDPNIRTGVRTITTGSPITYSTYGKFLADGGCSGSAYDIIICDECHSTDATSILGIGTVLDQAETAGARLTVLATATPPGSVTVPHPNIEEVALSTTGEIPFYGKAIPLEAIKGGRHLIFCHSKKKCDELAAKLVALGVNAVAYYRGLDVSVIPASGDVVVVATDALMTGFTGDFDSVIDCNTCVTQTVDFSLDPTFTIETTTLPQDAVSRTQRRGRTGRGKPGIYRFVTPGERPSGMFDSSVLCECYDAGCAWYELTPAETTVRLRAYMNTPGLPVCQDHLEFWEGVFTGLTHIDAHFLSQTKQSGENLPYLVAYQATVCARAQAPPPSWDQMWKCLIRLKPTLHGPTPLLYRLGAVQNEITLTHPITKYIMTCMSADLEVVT

SMILES	Ki (NS3)	IC50 (Cell line)	Selectivity [1]	CC50 (Huh-7)
CCC[C@H](NC(=O)[C@@H]1C2CCCC2CN1C(=O)[C@@H](NC(=O)[C@@H](NC(=O)Cc1nn[nH]n1)C(C)C)C(C)(C)C)C(=O)C(=O)NC1CC1 (some centres undefined)	808 nM			
CCC[C@H](NC(=O)[C@@H]1C2CCCC2CN1C(=O)[C@@H](NC(=O)[C@@H](NC(=O)CCCCc1nn[nH]n1)C(C)C)C(C)C)C(=O)C(=O)NC(=O)CN (some centres undefined)	82 nM			
CCCC(NC(=O)[C@@H]1CC(OC(=O)N2CCc3ccccc3C2)CN1C(=O)[C@@H](NC(=O)[C@@H](NC(=O)CCCCC(=O)OC)C(C)C)C(C)C)C(=O)C(=O)NC1CC1 (some centres undefined)	271 nM			
CCCC(NC(=O)[C@@H]1C2CCCC2CN1C(=O)[C@@H](NC(=O)[C@@H](NC(=O)CCCCc1nnn[nH]1)C(C)C)C(C)C)C(=O)C(=O)N[C@@H](C)c1ccccc1 (stereo in doubt; 12)	31 nM	> 50000 nM		> 50000 nM
CCCC(NC(=O)[C@@H]1CC(OC(=O)N2CCc3ccccc3C2)CN1C(=O)[C@@H](NC(=O)[C@@H](NC(=O)CCCCC(=O)NC)C(C)C)C(C)C)C(=O)C(=O)NC1CC1 (some centres undefined)	193 nM		4	> 10000 nM
CCC[C@H](NC(=O)[C@@H]1C2CCCC2CN1C(=O)[C@@H](NC(=O)[C@@H](NC(=O)CCCCc1nn[nH]n1)C(C)C)C(C)C)C(=O)C(=O)NC1CC1 (some centres undefined)	170 nM			
CCC[C@H](NC(=O)[C@@H]1C2CCCC2CN1C(=O)[C@@H](NC(=O)[C@@H](NC(=O)Cc1nn[nH]n1)[C@@H](C)CC)C(C)(C)C)C(=O)C(=O)NC1CC1 (some centres undefined)	3110 nM	> 50000 nM		> 50000 nM
CCC(C=O)NC(=O)[C@@H]1CC(OC(=O)c2ccc3ccccc3c2)CN1C(=O)[C@@H](NC(=O)[C@@H](NC(=O)CCCCC(=O)O)C(C)C)C(C)C (some centres undefined)	110 nM			

Second part, led by results:

Ki (NS3)	IC50 (Cell line)	Selectivity [1]	SMILES	CC50 (Huh-7)
30 nM	> 50000 nM		CCCC(NC(=O)[C@@H]1C2CCCC2CN1C(=O)[C@@H](NC(=O)[C@@H](NC(=O)Cc1nn[nH]n1)C1CCCCC1)C(C)(C)C)C(=O)C(=O)NC1CC1 (some centres undefined)	> 50000 nM
65 nM	> 50000 nM		CCCC(NC(=O)[C@@H]1CC(OC(=O)N2CCc3ccccc3C2)CN1C(=O)[C@@H](NC(=O)[C@@H](NC(=O)CCCCC(=O)O)C(C)C)C(C)C)C(=O)C(=O)NC1CC1 (some centres undefined)	> 50000 nM
123 nM	11600 nM		CCC[C@H](NC(=O)[C@@H]1C2CCCC2CN1C(=O)[C@@H](NC(=O)[C@@H](NC(=O)c1cnccn1)C(C)C)C(C)C)C(=O)C(=O)NC1CC1 (some centres undefined)	> 50000 nM
	> 50000 nM	7	CCC[C@H](NC(=O)[C@@H]1C2CCCC2CN1C(=O)[C@@H](NC(=O)[C@@H](NC(=O)CCCCc1nnn[nH]1)C(C)C)C(C)C)C(=O)C(=O)NC1CC1 (some centres undefined)	> 50000 nM
22 nM		1180	CCCC(NC(=O)[C@@H]1C2CCCC2CN1C(=O)[C@@H](NC(=O)[C@@H](NC(=O)CCCCc1nnn[nH]1)C(C)C)C(C)C)C(=O)C(=O)Nc1ccccc1 (some centres undefined)	> 10000 nM
248 nM	> 50000 nM		CCCC(NC(=O)[C@@H]1C2CCCC2CN1C(=O)[C@@H](NC(=O)[C@@H](NC(=O)CCCCc1nnn[nH]1)C(C)C)C(C)C)C(=O)C(=O)NC(C)CC (some centres undefined)	> 50000 nM
112 nM			CCCC(NC(=O)[C@@H]1C2CCCC2CN1C(=O)[C@@H](NC(=O)[C@@H](NC(=O)CCCCc1nnn[nH]1)C(C)C)C(C)C)C(=O)C(=O)N[C@@H](C)c1ccncc1 (some centres undefined)	
27 nM			CCCC(NC(=O)[C@@H]1C2CCCC2CN1C(=O)[C@@H](NC(=O)[C@@H](NC(=O)CCCCc1nnn[nH]1)C(C)C)C(C)C)C(=O)C(=O)N[C@@H](C)c1ccccc1 (stereo in doubt; 13)	
